# Experimental data taken from patent US12559529B2, “NPY2 receptor agonists” (Boehringer Ingelheim International GmbH, priority 2019, dated 2026).
# Target: T1, Human Neuropeptide Y2 Receptor (Homo sapiens, UniProt P49146)
# T1 construct: purchased CHEMICON HTS066M
# T1 sequence (P49146 1-381): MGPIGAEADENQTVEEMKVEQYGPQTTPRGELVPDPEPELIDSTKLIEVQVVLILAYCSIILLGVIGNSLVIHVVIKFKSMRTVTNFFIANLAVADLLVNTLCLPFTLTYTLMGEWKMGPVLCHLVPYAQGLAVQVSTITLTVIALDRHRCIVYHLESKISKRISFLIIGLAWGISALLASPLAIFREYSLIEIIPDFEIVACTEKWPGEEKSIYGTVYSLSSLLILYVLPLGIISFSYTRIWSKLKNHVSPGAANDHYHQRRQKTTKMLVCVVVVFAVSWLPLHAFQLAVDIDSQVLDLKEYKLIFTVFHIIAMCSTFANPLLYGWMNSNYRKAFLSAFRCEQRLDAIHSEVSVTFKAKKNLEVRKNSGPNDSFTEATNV
# Experiment: Radioligand binding competition assay (RLB)
# Conditions: Table 3; human 125I-PYY (1-36) 0.02 nM, Y2 receptor membranes; read-out: Ki
# How it was run: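 Membranes from cells expressing human Y2 receptor (0.5 μg protein/well) were incubated with radioligand and serially diluted peptides in 50 mM HEPES, 5 mM MgCl2, 1 mM CaCl2, 0.2% ovalbumin, pH 7.4, for 2 h at room temperature with shaking. Bound radioactivity was collected by filtration and counted; IC50 from sigmoidal nonlinear regression.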
row,SMILES,Ki
1,"CC(C)CC(=O)N[C@@H](C)C(=O)N1CCC[C@H]1C(=O)N[C@@H](CCC(=O)O)C(=O)N[C@@H](CCCCNC(=O)COCCOCCNC(=O)COCCOCCNC(=O)CC[C@H](NC(=O)CCCCCCCCCCCCCCCCC(=O)O)C(=O)O)C(=O)N1CCC[C@H]1C(=O)N[C@@H](CCC(=O)O)C(=O)N[C@@H](CCC(=O)O)C(=O)N[C@@H](CCC(=O)O)C(=O)N[C@@H](C)C(=O)N[C@@H](CO)C(=O)N[C@@H](C)C(=O)N[C@@H](CCC(=O)O)C(=O)N[C@@H](CCC(=O)O)C(=O)N[C@@H](CC(C)C)C(=O)N[C@@H](CCC(N)=O)C(=O)N[C@@H](CCCNC(=N)N)C(=O)N[C@@H](Cc1ccc(O)cc1)C(=O)N[C@@H](Cc1ccc(O)cc1)C(=O)N[C@H](C(=O)N[C@@H](CO)C(=O)N[C@@H](CC(C)C)C(=O)N[C@@H](CCCNC(=N)N)C(=O)N[C@@H](Cc1c[nH]cn1)C(=O)N[C@@H](Cc1ccc(O)cc1)C(=O)N[C@@H](Cc1ccc(O)cc1)C(=O)N[C@@H](CC(N)=O)C(=O)N[C@@H](Cc1c[nH]c2ccccc12)C(=O)N[C@@H](CC(C)C)C(=O)N[C@H](C(=O)N[C@@H](CCCNC(=N)N)C(=O)N[C@@H](CCC(N)=O)C(=O)N[C@@H](CCCNC(=N)N)C(=O)N[C@@H](Cc1ccc(O)cc1)C(N)=O)[C@@H](C)O)C(C)C [Compound 25, N{alpha-4}-(3-methylbutanoyl)-N{epsilon-7}-[2-(2-{2-[2-(2-{2-[(4S)-4-carboxy-4-(17-carboxyheptadecanamido)butanamido]ethoxy}ethoxy)acetamido]ethoxy}ethoxy)acetamido]-[4A,7K,9E,11E,14A,18Q,22V,28Y,30W,31L]hPYY (4-36)]",4.36 nM
2,"CC(C)CC(=O)N[C@@H](C)C(=O)N1CCC[C@H]1C(=O)N[C@@H](CCC(=O)O)C(=O)N[C@@H](CCCCNC(=O)COCCOCCNC(=O)COCCOCCNC(=O)CC[C@H](NC(=O)CCCCCCCCCCCCCCCCC(=O)O)C(=O)O)C(=O)N1CCC[C@H]1C(=O)N1CCC[C@H]1C(=O)N[C@@H](CCC(=O)O)C(=O)N[C@@H](CC(=O)O)C(=O)N[C@@H](C)C(=O)N[C@H](C(=O)N1CCC[C@H]1C(=O)N[C@@H](CCC(=O)O)C(=O)N[C@@H](CCC(=O)O)C(=O)N[C@@H](CC(C)C)C(=O)N[C@@H](CCC(N)=O)C(=O)N[C@@H](CCCNC(=N)N)C(=O)N[C@@H](Cc1ccc(O)cc1)C(=O)N[C@@H](Cc1ccc(O)cc1)C(=O)N[C@H](C(=O)N[C@@H](CO)C(=O)N[C@@H](CC(C)C)C(=O)N[C@@H](CCCNC(=N)N)C(=O)N[C@@H](Cc1c[nH]cn1)C(=O)N[C@@H](Cc1ccc(O)cc1)C(=O)N[C@@H](Cc1ccc(O)cc1)C(=O)N[C@@H](CC(N)=O)C(=O)N[C@@H](Cc1c[nH]c2ccccc12)C(=O)N[C@@H](CC(C)C)C(=O)N[C@H](C(=O)N[C@@H](CCCNC(=N)N)C(=O)N[C@@H](CCC(N)=O)C(=O)N[C@@H](CCCNC(=N)N)C(=O)N[C@@H](Cc1ccc(O)cc1)C(N)=O)[C@@H](C)O)C(C)C)[C@@H](C)O [Compound 26, N{alpha-4}-(3-methylbutanoyl)-N{epsilon-7}-[2-(2-{2-[2-(2-{2-[(4S)-4-carboxy-4-(17-carboxyheptadecanamido)butanamido]ethoxy}ethoxy)acetamido]ethoxy}ethoxy)acetamido]-[4A,7K,9P,13T,18Q,22V,28Y,30W,31L]hPYY (4-36)]",0.77 nM
3,"CC(C)CC(=O)N[C@@H](C)C(=O)N1CCC[C@H]1C(=O)N[C@@H](CCC(=O)O)C(=O)N[C@@H](CCCCNC(=O)COCCOCCNC(=O)COCCOCCNC(=O)CC[C@H](NC(=O)CCCCCCCCCCCCCCCCC(=O)O)C(=O)O)C(=O)N1CCC[C@H]1C(=O)N1CCC[C@H]1C(=O)N[C@@H](CCC(=O)O)C(=O)N[C@@H](CC(=O)O)C(=O)N[C@@H](C)C(=O)N[C@@H](CCC(=O)O)C(=O)N1CCC[C@H]1C(=O)N[C@@H](CCC(=O)O)C(=O)N[C@@H](CCC(=O)O)C(=O)N[C@@H](CC(C)C)C(=O)N[C@@H](CCC(N)=O)C(=O)N[C@@H](CCCNC(=N)N)C(=O)N[C@@H](Cc1ccc(O)cc1)C(=O)N[C@@H](Cc1ccc(O)cc1)C(=O)N[C@H](C(=O)N[C@@H](CO)C(=O)N[C@@H](CC(C)C)C(=O)N[C@@H](CCCNC(=N)N)C(=O)N[C@@H](Cc1c[nH]cn1)C(=O)N[C@@H](Cc1ccc(O)cc1)C(=O)N[C@@H](Cc1ccc(O)cc1)C(=O)N[C@@H](CC(N)=O)C(=O)N[C@@H](Cc1c[nH]c2ccccc12)C(=O)N[C@@H](CC(C)C)C(=O)N[C@H](C(=O)N[C@@H](CCCNC(=N)N)C(=O)N[C@@H](CCC(N)=O)C(=O)N[C@@H](CCCNC(=N)N)C(=O)N[C@@H](Cc1ccc(O)cc1)C(N)=O)[C@@H](C)O)C(C)C [Compound 27, N{alpha-4}-(3-methylbutanoyl)-N{epsilon-7}-[2-(2-{2-[2-(2-{2-[(4S)-4-carboxy-4-(17-carboxyheptadecanamido)butanamido]ethoxy}ethoxy)acetamido]ethoxy}ethoxy)acetamido]-[4A,7K,9P,13E,18Q,22V,28Y,30W,31L]hPYY (4-36)]",0.96 nM
4,"CC(C)CC(=O)N[C@@H](C)C(=O)N1CCC[C@H]1C(=O)N[C@@H](CCC(=O)O)C(=O)N[C@@H](CCCCNC(=O)COCCOCCNC(=O)COCCOCCNC(=O)CC[C@H](NC(=O)CCCCCCCCCCCCCCCCC(=O)O)C(=O)O)C(=O)N1CCC[C@H]1C(=O)N[C@@H](CCC(=O)O)C(=O)N[C@@H](CCC(=O)O)C(=O)N[C@@H](CC(=O)O)C(=O)N[C@H](C(=O)N[C@@H](CO)C(=O)N1CCC[C@H]1C(=O)N[C@@H](CCC(=O)O)C(=O)N[C@@H](CCC(=O)O)C(=O)N[C@@H](CC(C)C)C(=O)N[C@@H](CCC(N)=O)C(=O)N[C@@H](CCCNC(=N)N)C(=O)N[C@@H](Cc1ccc(O)cc1)C(=O)N[C@@H](Cc1ccc(O)cc1)C(=O)N[C@H](C(=O)N[C@@H](CCC(=O)O)C(=O)N[C@@H](CC(C)C)C(=O)N[C@@H](CCCNC(=N)N)C(=O)N[C@@H](Cc1c[nH]cn1)C(=O)N[C@@H](Cc1ccc(O)cc1)C(=O)N[C@@H](Cc1ccc(O)cc1)C(=O)N[C@@H](CC(N)=O)C(=O)N[C@@H](Cc1c[nH]c2ccccc12)C(=O)N[C@@H](CC(C)C)C(=O)N[C@H](C(=O)N[C@@H](CCCNC(=N)N)C(=O)N[C@@H](CCC(N)=O)C(=O)N[C@@H](CCCNC(=N)N)C(=O)N[C@@H](Cc1ccc(O)cc1)C(N)=O)[C@@H](C)O)C(C)C)[C@@H](C)O [Compound 28, N{alpha-4}-(3-methylbutanoyl)-N{epsilon-7}-[2-(2-{2-[2-(2-{2-[(4S)-4-carboxy-4-(17-carboxyheptadecanamido)butanamido]ethoxy}ethoxy)acetamido]ethoxy}ethoxy)acetamido]-[4A,7K,9E,12T,18Q,22V,23E,28Y,30W,31L]hPYY (4-36)]",6.03 nM
